Assay results from ChEMBL document CHEMBL5136988, “Chlororesistoflavins A and B, Chlorinated Benzopyrene Antibiotics Produced by the Marine-Derived Actinomycete Streptomyces sp. Strain EG32” (2022).
Values after ≈ are worked out from the molar mass of the structure shown.

Experiments:
Staphylococcus aureus = experiment: Antibacterial activity against methicillin-resistant Staphylococcus aureus TCH1516 assessed as growth inhibition incubated for 20 hrs by CLSI based broth microdilution method; type: functional
Escherichia coli = experiment: Antibacterial activity against Escherichia coli LptD4213 assessed as growth inhibition incubated for 20 hrs by CLSI based broth microdilution method; type: functional

Cc1cc(O)c2c3c1C(=O)C=C1C(C)(C)C(=O)c4c(O)cc(O)c(c4[C@@]13O)C2=O
MIC (Staphylococcus aureus): 0.25 µg/mL (≈ 0.637 µM)
MIC (Escherichia coli): 64 µg/mL (≈ 163 µM)

Cc1cc(O)c2c3c1C(=O)C=C1C(C)(C)C(=O)c4c(O)c(Cl)c(O)c(c4[C@@]13O)C2=O
MIC (Staphylococcus aureus): 2 µg/mL (≈ 4.69 µM)
MIC (Escherichia coli): 128 µg/mL (≈ 300 µM)

Cc1cc(O)c2c3c1C(=O)C(Cl)=C1C(C)(C)C(=O)c4c(O)cc(O)c(c4[C@@]13O)C2=O
MIC (Staphylococcus aureus): 0.25 µg/mL (≈ 0.586 µM)
MIC (Escherichia coli): 32 µg/mL (≈ 75 µM)

Cc1cc(O)c2c3c4c(cc(O)c13)C(C)(C)C(=O)c1c(O)cc(O)c(c1-4)C2=O [HELIOMYCIN]
MIC (Staphylococcus aureus): 0.125 µg/mL (≈ 0.332 µM)
MIC (Escherichia coli): 32 µg/mL (≈ 85 µM)
